Results as given in patent US9801903B2, “Targeting cancer with metabolic therapy and hyperbaric oxygen” (priority 2012, dated 2017).

Test system: VM-M3/Fluc cells
Assay: Whole animal tumor bioluminescence (tumor size and metastatic spread)
Format: in vivo, VM/Dk mice
Details: Example 2; day 21 post-inoculation; FIG. 8
Source text: VM-M3/Fluc cells (T. Seyfried; Boston College) were obtained from a spontaneous tumor in a VM/Dk inbred mouse and adapted to cell culture (Huysentruyt et al., Metastatic cancer cells with macrophage properties: evidence from a new murine tumor model. Intl J Can. 2008, 123(1):73-84). […] VM-M3/Fluc cells are transfected with the firefly luciferase gene which produces a bioluminescent product in the presence of the enzymatic substrate luciferin (Shelton, et al. (2010) A novel pre-clinical in vivo mouse model for malignant brain tumor growth and invasion. Journal of neuro-oncology 99: 165-176). Bioluminescence can be detected and measured with the Xenogen IVIS Lumina System (Caliper LS). […] Bioluminescent signal was recorded using a 1 second exposure time on the IVIS Lumina cooled CCD camera. Progression of the metastatic cancer was measured by tracking the bioluminescent signal of the whole animal over time. Tumor bioluminescence will be measured once weekly for the duration of the study.
Tumor progression was measured using bioluminescence on the Xenogen IVIS Lumina cooled CCD camera (Caliper LS, Hopkinton, Mass.). […] Whole animal bioluminescent signal was measured in photons/sec once a week as an indicator of metastatic tumor size and spread. Tumor progression was measured 21 days after tumor cell inoculation.

With CC(=O)CC(=O)OCC[C@@H](C)OC(=O)CC(C)=O [KE, R,S-1,3-butanediol-diacetoacetate ester] the “tumor bioluminescence / tumor growth and metastasis” value was “greatly reduced tumor growth and reduced metastasis of the tumor”.

With CC(O)CCO (centres unmarked) [BD, 1,3-butanediol] the “tumor bioluminescence / tumor growth and metastasis” value was “greatly reduced tumor growth and reduced metastasis of the tumor”.
